ChEMBL document CHEMBL4184101, “Hybrid peptide-small molecule oxytocin analogs are potent and selective agonists of the oxytocin receptor” (Bioorg Med Chem Lett, 2018)
*1 amine or outer side, *2 acyl side, *3 side chain or, on linkers, in order; H or OH if unused. Where a SMILES comes first, the peptide text is derived from it. Bridges are numbered along the chain shown (N, C = ends). [ ]: non-standard residue; d: D form. The star is where a group is joined. X3 = c1ccc(OC[C@@H]2CCCN2*)cc1; X5 = c1ccc(NC[C@@H]2CCCN2*)cc1; X8 = c1ccc(CC[C@@H]2CCCN2*)cc1; Cysteamide = C(CS[*:3])N[*:1]; X1 = c1ccc([C@@H]2CCCN2*)nc1; X6 = Cc1nnc([C@@H]2CCCN2*)o1; X9 = C1CCN(C2CCN(*)CC2)C1; Pyrrolidide = C1CCN(*)C1; X4 = COC[C@@H]1CCCN1*; X10 = CN1CCCN(*)CC1; X2 = C[C@H]1CCCN1*; X7 = CC(C)CCN(C)*; Mpa = O=C(O)CCS

Legend:
[1] = Stability in human liver microsomes by LC/MS/MS analysis; assay type: ADME, microsome; settings: read-out: Stability
[2] = target: T1, Oxytocin receptor (Homo sapiens) (UniProt P30559); experiment: Agonist activity at human OTR expressed in CHO cells assessed as increase in calcium flux after 60 to 120 mins by fluo-4 dye based FLIPR assay relative to control; assay type: functional, cell-based
T1 sequence (whole entry): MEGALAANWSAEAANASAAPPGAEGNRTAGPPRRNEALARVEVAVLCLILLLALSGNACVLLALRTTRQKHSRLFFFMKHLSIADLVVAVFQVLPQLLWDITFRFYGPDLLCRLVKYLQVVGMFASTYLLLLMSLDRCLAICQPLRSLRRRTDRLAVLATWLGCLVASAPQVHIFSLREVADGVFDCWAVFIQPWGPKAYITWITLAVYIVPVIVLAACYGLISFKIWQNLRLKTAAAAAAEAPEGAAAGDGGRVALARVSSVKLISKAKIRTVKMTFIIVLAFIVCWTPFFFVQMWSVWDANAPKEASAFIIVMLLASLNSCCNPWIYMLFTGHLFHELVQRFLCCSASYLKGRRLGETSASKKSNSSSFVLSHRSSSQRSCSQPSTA

[3] = target: Vasopressin V1a receptor (Homo sapiens, UniProt P37288); experiment: Agonist activity at vasopressin 1a receptor (unknown origin); assay type: functional
Vasopressin V1a receptor, sequence (P37288 whole entry): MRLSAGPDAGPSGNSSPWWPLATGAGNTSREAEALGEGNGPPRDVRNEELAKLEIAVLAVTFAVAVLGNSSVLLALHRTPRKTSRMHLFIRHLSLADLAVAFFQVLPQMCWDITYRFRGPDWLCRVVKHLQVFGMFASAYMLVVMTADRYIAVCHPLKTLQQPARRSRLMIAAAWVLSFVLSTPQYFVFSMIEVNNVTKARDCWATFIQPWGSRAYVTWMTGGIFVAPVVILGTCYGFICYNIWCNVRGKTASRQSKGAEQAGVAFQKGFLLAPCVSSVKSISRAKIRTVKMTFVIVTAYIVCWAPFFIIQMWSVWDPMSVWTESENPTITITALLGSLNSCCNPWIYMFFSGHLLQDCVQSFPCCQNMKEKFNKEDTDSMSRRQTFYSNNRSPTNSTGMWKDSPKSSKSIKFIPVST

[4] = target: T2, Oxytocin receptor (Homo sapiens, UniProt P30559); experiment: Agonist activity at human OTR expressed in CHO cells assessed as increase in calcium flux after 60 to 120 mins by fluo-4 dye based FLIPR assay; assay type: functional, cell-based
T2 sequence (P30559 whole entry): T1 sequence (whole entry)

Row | SMILES | CLint scaled [1] [mL/min/kg] | Efficacy [2] [%] | EC50 [3] [nM] | EC50 [4] [nM]
1 | CC[C@H](C)[C@@H]1NC(=O)[C@H](Cc2ccc(O)cc2)NC(=O)CCSSC[C@@H](C(=O)N2CCC[C@H]2C(N)=O)NC(=O)[C@H](CC(N)=O)NC(=O)[C@H](CCC(N)=O)NC1=O | < 8 | 89 | > 1000 | 1.3
2 | CC[C@H](C)[C@@H]1NC(=O)[C@H](Cc2ccc(O)cc2)NC(=O)CCSSC[C@@H](C(=O)N2CCC[C@H]2C(=O)N[C@@H](CC(C)C)C(N)=O)NC(=O)[C@H](CC(N)=O)NC(=O)[C@H](CCC(N)=O)NC1=O | < 8 | 82 | > 1000 | 1.8
3 | CC[C@H](C)[C@@H]1NC(=O)[C@H](Cc2ccc(O)cc2)NC(=O)CCSSC[C@@H](C(N)=O)NC(=O)[C@H](CC(N)=O)NC(=O)[C@H](CCC(N)=O)NC1=O | < 8 | 90 | > 1000 | 5.4
4 | CC[C@H](C)[C@@H]1NC(=O)[C@H](Cc2ccc(O)cc2)NC(=O)CCSSC[C@@H](C(=O)N2CCC[C@H]2C(=O)N[C@@H](CC(C)C)C(=O)NCC(N)=O)NC(=O)[C@H](CC(N)=O)NC(=O)[C@H](CCC(N)=O)NC1=O | < 8 | 106 |  | 
5 | CC[C@H](C)[C@@H]1NC(=O)[C@H](Cc2ccc(O)cc2)NC(=O)CCSSCCNC(=O)[C@H](CC(N)=O)NC(=O)[C@H](CCC(N)=O)NC1=O ([Mpa]YIQN-Cysteamide; disulfide 1-C) | < 8 | 67 | > 1000 | 28
6 | CC[C@H](C)[C@@H]1NC(=O)[C@H](Cc2ccc(O)cc2)NC(=O)CCSSC[C@@H](C(=O)N2CCCC2)NC(=O)[C@H](CC(N)=O)NC(=O)[C@H](CCC(N)=O)NC1=O ([Mpa]YIQNC-Pyrrolidide; disulfide 1-6) | < 8 | 97 | > 1000 | 0.51
7 | CC[C@H](C)[C@@H]1NC(=O)[C@H](Cc2ccc(O)cc2)NC(=O)CCSSC[C@@H](C(=O)N2CCC[C@H]2c2ccccn2)NC(=O)[C@H](CC(N)=O)NC(=O)[C@H](CCC(N)=O)NC1=O ([Mpa]YIQNC-X1; disulfide 1-6) | < 8 | 80 | > 1000 | 0.83
8 | CC[C@H](C)[C@@H]1NC(=O)[C@H](Cc2ccc(O)cc2)NC(=O)CCSSC[C@@H](C(=O)N2CCC[C@@H]2C)NC(=O)[C@H](CC(N)=O)NC(=O)[C@H](CCC(N)=O)NC1=O ([Mpa]YIQNC-X2; disulfide 1-6) | < 8 | 84 | > 1000 | 0.6
9 | CC[C@H](C)[C@@H]1NC(=O)[C@H](Cc2ccc(O)cc2)NC(=O)CCSSC[C@@H](C(=O)N2CCC[C@H]2COc2ccccc2)NC(=O)[C@H](CC(N)=O)NC(=O)[C@H](CCC(N)=O)NC1=O ([Mpa]YIQNC-X3; disulfide 1-6) | 123 | 52 | > 1000 | 194
10 | CC[C@H](C)[C@@H]1NC(=O)[C@H](Cc2ccc(O)cc2)NC(=O)CCSSC[C@@H](C(=O)N2CCC[C@H]2COC)NC(=O)[C@H](CC(N)=O)NC(=O)[C@H](CCC(N)=O)NC1=O ([Mpa]YIQNC-X4; disulfide 1-6) | < 8 | 91 | > 1000 | 0.44
11 | CC[C@H](C)[C@@H]1NC(=O)[C@H](Cc2ccc(O)cc2)NC(=O)CCSSC[C@@H](C(=O)N2CCC[C@H]2CNc2ccccc2)NC(=O)[C@H](CC(N)=O)NC(=O)[C@H](CCC(N)=O)NC1=O ([Mpa]YIQNC-X5; disulfide 1-6) | 40 | 76 | > 1000 | 0.77
12 | CC[C@H](C)[C@@H]1NC(=O)[C@H](Cc2ccc(O)cc2)NC(=O)CCSSC[C@@H](C(=O)N2CCC[C@H]2c2nnc(C)o2)NC(=O)[C@H](CC(N)=O)NC(=O)[C@H](CCC(N)=O)NC1=O ([Mpa]YIQNC-X6; disulfide 1-6) | < 8 | 77 | > 1000 | 0.6
13 | CC[C@H](C)[C@@H]1NC(=O)[C@H](Cc2ccc(O)cc2)NC(=O)CCSSC[C@@H](C(=O)N2CCC[C@H]2CCc2ccccc2)NC(=O)[C@H](CC(N)=O)NC(=O)[C@H](CCC(N)=O)NC1=O ([Mpa]YIQNC-X8; disulfide 1-6) | 153 | 59 | > 1000 | 5.2
14 | CC[C@H](C)[C@@H]1NC(=O)[C@H](Cc2ccc(O)cc2)NC(=O)CCSSC[C@@H](C(=O)N2CCC[C@H]2C(=O)N(C)CCC(C)C)NC(=O)[C@H](CC(N)=O)NC(=O)[C@H](CCC(N)=O)NC1=O ([Mpa]YIQNCP-X7; disulfide 1-6) | 25.5 | 94 | > 1000 | 1.8
15 | CC[C@H](C)[C@@H]1NC(=O)[C@H](Cc2ccc(O)cc2)NC(=O)CCSSC[C@@H](C(=O)N2CCC[C@H]2C(=O)N2CCC(N3CCCC3)CC2)NC(=O)[C@H](CC(N)=O)NC(=O)[C@H](CCC(N)=O)NC1=O ([Mpa]YIQNCP-X9; disulfide 1-6) |  | 98 | > 1000 | 6.8
16 | CC[C@H](C)[C@@H]1NC(=O)[C@H](Cc2ccc(O)cc2)NC(=O)CCSSC[C@@H](C(=O)N2CCC[C@H]2C(=O)N2CCCN(C)CC2)NC(=O)[C@H](CC(N)=O)NC(=O)[C@H](CCC(N)=O)NC1=O ([Mpa]YIQNCP-X10; disulfide 1-6) |  | 98 | > 1000 | 3.6
17 | CC[C@H](C)[C@@H]1NC(=O)[C@H](Cc2ccc(O)cc2)NC(=O)[C@@H](N)CSSC[C@@H](C(=O)N2CCC[C@H]2C(=O)N[C@@H](CC(C)C)C(=O)NCC(N)=O)NC(=O)[C@H](CC(N)=O)NC(=O)[C@H](CCC(N)=O)NC1=O [OXYTOCIN] | 30 | 102 |  | 
